Laboratory results taken from US9862748B2, “Peptide compounds and methods of production and use thereof” (priority 2012, dated 2018).
Square brackets hold non-standard residues; d marks the D form. Peptide text beside a SMILES is read from it. AEEA = NCCOCCOCC(=O)O

B1: CAP37: cationic antimicrobial protein of Mr 37 kDa; recombinant CAP37 produced in human embryonic kidney (HEK) 293 cells (protein)
chain: IVGGRKARPRQFPFLASIQNQGRHFCGGALIHARFVMTAASCFQSQNPGVSTVVLGAYDLRRRERQSRQTFSISSMSENGYDPQQNLNDLMLLQLDREANLTSSVTILPLPLQNATVEAGTRCQVAGWGSQRSGGRLSRFPRFVNVTVTPEDQCRPNNVCTGVLTRRGGICNGDGGTPLVCEGLAHGVASFSLGPCGRGPDFFTRVALFRDWIDGVLNNPGP

Columns and labels:
[1] = test system: Acinetobacter baumannii ATCC® BAA-747™; format: cell-based; conditions: starting inoculum 1×10^6 CFU/ml; 60 to 180 minute incubation
Protocol: (§1) In vitro bactericidal activity: The three peptide compounds BCC01-5RMP (SEQ ID NO: 21), BCC02-5RMP (SEQ ID NO: 22), and BCC03-5RMP (SEQ ID NO: 23) were assayed for in vitro bactericidal activity against Pseudomonas aeruginosa, Escherichia coli, Salmonella typhimurium, and Acinetobacter baumannii. The starting inoculum for all experiments was 1×10^6 colony forming units (CFU)/ml. The CFU remaining at the end of 60 to 180 minute incubation was determined, and the data plotted as a log reduction in CFU/ml.
For FIGS. 10-13, in vitro bactericidal assays were performed using a starting inoculum of 1×10^6 CFU/ml of the bacterial suspension. The CFU remaining at the end of the 60-180 minute incubation was determined, and the data was plotted as log reduction in CFU/ml.
In particular, each of the test peptides (CAP37 peptides 120-146WR, 120-146WH, and 95-122 (SEQ ID NOs: 30, 31, and 26, respectively)) was used at 25, 12.5, 6.25, and 3.12 μM. Gentamicin was used at 4 μg/ml. 1×10^6/ml Acinetobacter baumannii ATCC® BAA-747™ or Pseudomonas aeruginosa ATCC® 27853™ (American Type Culture Collection, Manassas, Va.) were incubated with the peptides, negative buffer control (tryptone saline), and positive control gentamicin at pH 5.5 or 7.2. A 60 minute incubation was used for Acinetobacter baumannii ATCC® BAA-747™, while a 180 minute incubation was used for Pseudomonas aeruginosa ATCC® 27853™. 50 μl aliquots were plated out on agar plates and incubated overnight. Colony forming units were counted after overnight incubation and CFU/ml calculated.

RAW264.7 cells = test: LPS neutralization: TNF-α release from LPS-stimulated RAW264.7 cells; format: cell-based, mouse
Protocol: (§2) The well-characterized response of RAW264.7 macrophage cells was used to produce tumor necrosis-factor-alpha (TNF-α) in response to LPS to determine whether the peptides could dampen the release of this cytokine. […] Importantly, pre-treatment (3 hours prior to LPS addition) as well as post-treatment of the RAW264.7 cells (3 hours post LPS addition) with peptide dampened the cytokine release. […] The finding that the novel peptides bind and neutralize the effect of Pseudomonas LPS is of critical importance since this ensures that the novel therapeutic peptide compounds described herein will not only kill the bacteria, but will also neutralize the LPS endotoxin released by the bacteria which plays such an important role in the rapid progression of sepsis.
(§3) BCC01-5RMP (SEQ ID NO: 21), BCC02-5RMP (SEQ ID NO: 22), and BCC03-5RMP (SEQ ID NO: 23) were tested for their ability to bind lipopolysaccharide (LPS) using the limulus amebocyte lysate method (LAL). […] There was no statistical difference in their ability to bind LPS using the LAL technique. The ability of the peptides to neutralize LPS was assessed by determining their ability to attenuate the release of tumor necrosis factor-alpha (TNF-α) from LPS-stimulated RAW264.7 cells (a mouse macrophage cell line). […] No significant differences were observed between the three peptides to neutralize LPS as measured by cytokine release.

Pseudomonas LPS = test: LPS binding, Limulus Amebocyte Lysate (LAL) assay
Protocol: as §2, §3

Salmonella typhimurium = test: In vitro bactericidal assay; format: cell-based
Protocol: as §1

[2] = test system: Pseudomonas clinical isolate B64; test: BIOSCREEN C growth assay / MIC, antibiotic in combination with peptide; format: cell-based, P. aeruginosa
Protocol: The peptide and antibiotics were set up in the wells of the microtiter plate at starting ratios of MIC equivalents of antibiotic:peptide at 3:1, 1:1, and 1:3. They were serially diluted to concentrations well below suboptimal/sublethal levels of the antibiotic and peptide. The organism was added (1×10^5 CFU/well), the BIOSCREEN C™ assay (Growth Systems USA, Piscataway, N.J.) was performed, and data was collected over 24 hours.

[3] = test system: human corneal epithelial cell (HCEC); test: HCEC chemotaxis, modified Boyden chemotaxis chamber assay; format: cell-based; conditions: 120-146QH 10^−4 to 10^−10 M; 120-146QR 10^−6 and 10^−8 M; HB-EGF 50 ng/ml; rCAP37 250 ng/ml; 3 hours
Protocol: The effect of buffer control (0.1% BSA in Gey's buffer), heparin binding-epidermal growth factor (HB-EGF, 50 ng/ml), recombinant CAP37 (rCAP37, 250 ng/ml), 120-146QH ([…], 10^−10M, 10^−8M, 10^−4M, and 10^−4M,) and 120-146QR (10^−10M, 10^−8M, 10^−6M, and 10^−4M) on HCEC chemotaxis was determined by the modified Boyden chemotaxis chamber method. HCEC chemotaxis was measured in response to HB-EGF, rCAP37, and peptides 120-146QH (SEQ ID NO: 29) and 120-146QR (SEQ ID NO: 28) after incubation for 3 hours at 37° C. Chemotaxis is expressed as a percent migration. The buffer control (no chemoattractant) is arbitrarily assigned the value of 100% migration. Data are expressed as means±SEM and are calculated from 6 observations for each test point. **P<0.01 by Wilcoxon signed-rank test as compared to controls.
Chemotaxis assays were performed using the modified Boyden chemotaxis chamber assay. Peptide 120-146QH was used at 10^−4M, 10^−6M, 10^−8 M, 10^−10 M, and 10^−12M, and peptide 120-146QR was used at 10^−4M, 10^−6M, 10^−8 M, and 10^−10 M.

HCEC monolayers = test: In vitro scratch assay of wound closure; format: cell-based, human
Protocol: An in vitro scratch assay was used in order to determine the ability of rCAP37 to facilitate corneal wound healing. Human corneal epithelial cells were cultured as described above until they reached a confluent monolayer. Each monolayer was scratched using a 10 μl pipette tip to create two perpendicular lines. Monolayers were treated with heparin binding-epidermal growth factor (HB-EGF, 250 ng/ml; Becton Dickinson), rCAP37 (25-2000 ng/ml), or basal KSFM (Gibco). Wound closure was monitored at 0, 18, 24, and 48 hours utilizing a camera-equipped inverted microscope (TE2000-E; Nikon, Melville, N.Y.). Time-lapse images of in vitro wound closure were obtained using a camera-equipped inverted microscope (TE2000-E; Nikon) from 0-18 hours. HCEC monolayers were treated with HB-EGF, rCAP37, and basal KSFM as described above. The width of each scratch was quantitated using ImageJ software (US National Institutes of Health, Bethesda, Md.). Results are presented as the percentage of wound closure.

[4] = test system: mouse cornea (corneal epithelial abrasion); test: In vivo model of corneal wound healing
Protocol: The in vivo model of wound healing was carried out using a disposable biopsy punch (2 mm, Miltex, York, Pa.) to demarcate the mouse cornea and a 0.5 mm burr using the AlgerBrush II (The Alger Company, Inc., Lago Vista, Tex.) to remove the corneal epithelium.
Mice were anesthetized using ketamine (100 mg/kg; Bionichepharma, LLC., St. Lake Forrest, Ill.) and xylazine ([…]; Rompun; Bayer Corp., Shawnee Mission, Kans.), and the right cornea was wounded as follows. A disposable biopsy punch (2 mm, Miltex, York, Pa.) was used to demarcate the mouse cornea. The corneal epithelium was carefully removed within the 2 mm demarcated area with a 0.5 mm burr using the AlgerBrush II (The Alger Company, Inc., Lago Vista, Tex.). The corneal abrasions were treated at 0 and 16 hours with HB-EGF (250 ng/ml), rCAP37 (250 ng/ml), or vehicle control (0.9% sodium chloride, pH 5.5, Baxter, Deerfield, Ill.). Corneal abrasions were visualized using sterile fluorescein sodium ophthalmic strips USP (FLUORETS®, Chauvin Laboratory, Aubenas, France) dampened with sterile PBS. Images were taken at 0, 16, 24, and 48 hours immediately following fluorescein staining using a surgical microscope equipped with a camera (Carl Zeiss OPMI VISU 140, Carl Zeiss Surgical, Inc., Oberkochen, Germany). The areas of the open wound were quantitated using ImageJ software (US National Institutes of Health), and the results were reported as the percentage of wound closure.
Whole mouse eyes were collected for histology at 0, 6, 16, 24, and 48 hours post wounding and were immediately placed in Prefer fixative (Anatech LTD., Battle Creek, Mich.) for 20 minutes before being transferred to 70% ethanol. Tissues were paraffin-embedded and cut at a thickness of 5 μm, mounted on SUPERFROSTPLUS® slides (Statlab Medical Products, Lewisville, Tex.), and subsequently deparaffinized, rehydrated, and washed in deionized water. Sections were stained with hematoxylin (Leica Microsystems, Buffalo Grove, Ill.) and rinsed twice in deionized water before being washed in Blue Buffer (Leica Microsystems). The sections were finally washed in deionized water and 95% ethanol prior to being counterstained with eosin (Leica Microsystems). Sections were dehydrated in ethanol and cleared in xylene.

[5] = 250 ng/ml topical at 0 and 16 hours

Row | Molecule | activity against Acinetobacter baumannii [1] | release of TNF-α in response to Pseudomonas LPS (RAW264.7 cells) | binding of Pseudomonas LPS (LAL) (Pseudomonas LPS) | activity against Salmonella typhimurium (Salmonella typhimurium) | effect of added peptide on sensitivity of the bacterium to Cefotaxime ([2]; 3.04 μg/ml peptide with Cefotaxime 2.81 μg/ml, P=0.0143) | effect of added peptide with Levofloxacin, Fractional area (FA) ([2]; 3.04 μg/ml peptide with Levofloxacin 3.6 μg/ml) | effect of added peptide on killing by Ciprofloxacin ([2]; 4.05 μg/ml peptide with […] Ciprofloxacin, P=0.0003) | effect of added peptide on the killing effect of Cefotaxime ([2]; 0.34 and 1.0 μg/ml peptide with Cefotaxime 2.81 μg/ml) | HCEC migration versus buffer control [3] | percentage wound closure in vitro (HCEC monolayers; 250 ng/ml, at 18 hours) | percentage wound closure in vitro (HCEC monolayers; 500 ng/ml) | re-epithelialization at 24 hours versus vehicle (H&E histology) ([4]; 250 ng/ml) | wound closure at 16 hours [4, 5] | wound closure at 24 hours [4, 5]
1 | CC[C@H](C)[C@H](NC(=O)[C@H](CC(C)C)NC(=O)[C@H](C)NC(=O)CNC(=O)CNC(=O)[C@H](CS)NC(=O)[C@H](Cc1ccccc1)NC(=O)[C@H](Cc1c[nH]cn1)NC(=O)[C@H](CCCNC(=N)N)NC(=O)CNC(=O)[C@H](CCC(N)=O)NC(=O)[C@H](CC(N)=O)NC(=O)[C@H](CCCNC(=N)N)NC(=O)[C@H](CCCNC(=N)N)NC(=O)[C@H](CCCNC(=N)N)NC(=O)[C@H](CCCNC(=N)N)NC(=O)COCCOCCNC(=O)COCCOCCN)C(=O)N[C@@H](Cc1c[nH]cn1)C(=O)N[C@@H](C)C(=O)N[C@@H](CCCNC(=N)N)C(=O)N[C@@H](Cc1ccccc1)C(=O)N[C@H](C(=O)N[C@@H](CCSC)C(=O)N[C@H](C(=O)N[C@@H](C)C(=O)N[C@@H](C)C(=O)N[C@@H](CO)C(=O)N[C@@H](CS)C(=O)N[C@@H](Cc1ccccc1)C(=O)N[C@@H](CCC(N)=O)C(=O)N[C@@H](CCCNC(=N)N)C(=O)O)[C@@H](C)O)C(C)C [BCC01-5RMP] (H-[AEEA][AEEA]RRRRNQGRHFCGGALIHARFVMTAASCFQR-OH; N-terminus and C-terminus assumed) | most active | attenuate the release of TNF-α | bound Pseudomonas LPS | strong, but lesser activity |  |  |  |  |  |  |  |  |  | 
2 | CC[C@H](C)[C@H](NC(=O)[C@H](CC(C)C)NC(=O)[C@H](C)NC(=O)CNC(=O)CNC(=O)[C@H](CO)NC(=O)[C@H](Cc1ccccc1)NC(=O)[C@H](Cc1c[nH]cn1)NC(=O)[C@H](CCCNC(=N)N)NC(=O)CNC(=O)[C@H](CCC(N)=O)NC(=O)[C@H](CC(N)=O)NC(=O)[C@H](CCCNC(=N)N)NC(=O)[C@H](CCCNC(=N)N)NC(=O)[C@H](CCCNC(=N)N)NC(=O)[C@H](CCCNC(=N)N)NC(=O)COCCOCCNC(=O)COCCOCCN)C(=O)N[C@@H](Cc1c[nH]cn1)C(=O)N[C@@H](C)C(=O)N[C@@H](CCCNC(=N)N)C(=O)N[C@@H](Cc1ccccc1)C(=O)N[C@H](C(=O)N[C@@H](CCSC)C(=O)N[C@H](C(=O)N[C@@H](C)C(=O)N[C@@H](C)C(=O)N[C@@H](CO)C(=O)N[C@@H](CS)C(=O)N[C@@H](Cc1ccccc1)C(=O)N[C@@H](CCC(N)=O)C(=O)N[C@@H](CCCNC(=N)N)C(=O)O)[C@@H](C)O)C(C)C [BCC02-5RMP] (H-[AEEA][AEEA]RRRRNQGRHFSGGALIHARFVMTAASCFQR-OH; N-terminus and C-terminus assumed) | most active | attenuate the release of TNF-α | bound Pseudomonas LPS | strong, but lesser activity | now sensitive | shows significance | significantly affected killing | no statistical effect |  |  |  |  |  | 
3 | B1 |  |  |  |  |  |  |  |  | significant increase in migration | ~71% | approximately 62% | greatly accelerated | 71% | 83%
